Measured values published in ChEMBL document CHEMBL4002618, “Anticomplement triterpenoids from the roots of Ilex asprella” (2017).
Active and inactive are the calls of the source. The calls are words filed in the database; no cut-off is given here.

Columns and labels:
Erythrocyte [1] = experiment: Anticomplement activity in sheep erythrocytes assessed as concentration required for 50% hemolytic inhibition by classic pathway preincubated for 10 mins with guinea pig serum followed by erythrocyte addition measured after 30 mins by spectrophotometer; type: functional, Ovis aries
Erythrocyte [2] = experiment: Anticomplement activity in New Zealand White rabbit erythrocytes assessed as concentration required for 50% hemolytic inhibition by alternative pathway preincubated for 10 mins with normal human serum followed by erythrocyte addition measured after 30 mins by spectrophotometer; type: functional, Oryctolagus cuniculus
Erythrocyte [3] = experiment: Anticomplement activity in sheep erythrocytes assessed as inhibition of hemolysis by classical pathway after 30 mins of compound treatment in normal human serum with C1q-depleted sera; type: functional, cell-based; conditions: Ovis aries
Erythrocyte [4] = experiment: Anticomplement activity in sheep erythrocytes assessed as inhibition of hemolysis by classical pathway after 30 mins of compound treatment in normal human serum with C2-depleted sera; type: functional, cell-based; conditions: Ovis aries
Erythrocyte [5] = experiment: Anticomplement activity in sheep erythrocytes assessed as inhibition of hemolysis by classical pathway after 30 mins of compound treatment in normal human serum with C5-depleted sera; type: functional, cell-based; conditions: Ovis aries
Erythrocyte [6] = experiment: Anticomplement activity in sheep erythrocytes assessed as inhibition of hemolysis by classical pathway after 30 mins of compound treatment in normal human serum with C3-depleted sera; type: functional, cell-based; conditions: Ovis aries
Erythrocyte [7] = experiment: Anticomplement activity in sheep erythrocytes assessed as inhibition of hemolysis by classical pathway after 30 mins of compound treatment in normal human serum with C4-depleted sera; type: functional, cell-based; conditions: Ovis aries
Erythrocyte [8] = experiment: Anticomplement activity in sheep erythrocytes assessed as inhibition of hemolysis by classical pathway after 30 mins of compound treatment in normal human serum with C9-depleted sera; type: functional, cell-based; conditions: Ovis aries

`CC1(C)CC[C@]2(C(=O)O)CC[C@]3(COC(=O)/C=C/c4ccc(O)cc4)C(=CC[C@@H]4[C@@]5(C)CC[C@H](OC(=O)/C=C/c6ccc(O)cc6)C(C)(C)[C@@H]5CC[C@]43C)[C@@H]2C1` was tested, and the Activity (Erythrocyte [1]) was 0.072 mg/mL, the Activity (Erythrocyte [2]) was 0.159 mg/mL and the Activity (Erythrocyte [3]) was “Active”. For the same compound, the Activity (Erythrocyte [4]) was “inactive”, the Activity (Erythrocyte [5]) was “Active” and the Activity (Erythrocyte [6]) was “Active”. For the same compound, the Activity (Erythrocyte [7]) was “Active” and the Activity (Erythrocyte [8]) was “inactive”.

In the case of `C=C1[C@@H](O)[C@H](O)C[C@]2(C)[C@H]3CC=C4[C@@H]5CC(C)(C)CC[C@]5(C(=O)O)CC[C@@]4(C)[C@]3(C)CC[C@@H]12`, the Activity (Erythrocyte [1]) is reported as 0.09 mg/mL, the Activity (Erythrocyte [2]) is reported as 0.308 mg/mL and the Activity (Erythrocyte [3]) is reported as “Active”. The Activity (Erythrocyte [4]) was “Active” and the Activity (Erythrocyte [8]) was “Active”.
